Measured values: US5428048A, “Aryl-N-hydroxyureas as inhibitors of 5-lipoxygenase and anto-arteriosclerotic agents” (American Home Products Corporation, priority 1993, dated 1995)

How the values were obtained:
[1] = target: T1, 5-Lipoxygenase (Homo sapiens, UniProt P09917); test: Inhibition of 5-Lipoxygenase in Human Whole Blood (ionophore A23187-stimulated LTB4); type: cell-based
T1 construct: endogenous in cells; host or cells: whole blood of male human donors (results per 10^6 neutrophils)
T1 sequence (P09917 1-674): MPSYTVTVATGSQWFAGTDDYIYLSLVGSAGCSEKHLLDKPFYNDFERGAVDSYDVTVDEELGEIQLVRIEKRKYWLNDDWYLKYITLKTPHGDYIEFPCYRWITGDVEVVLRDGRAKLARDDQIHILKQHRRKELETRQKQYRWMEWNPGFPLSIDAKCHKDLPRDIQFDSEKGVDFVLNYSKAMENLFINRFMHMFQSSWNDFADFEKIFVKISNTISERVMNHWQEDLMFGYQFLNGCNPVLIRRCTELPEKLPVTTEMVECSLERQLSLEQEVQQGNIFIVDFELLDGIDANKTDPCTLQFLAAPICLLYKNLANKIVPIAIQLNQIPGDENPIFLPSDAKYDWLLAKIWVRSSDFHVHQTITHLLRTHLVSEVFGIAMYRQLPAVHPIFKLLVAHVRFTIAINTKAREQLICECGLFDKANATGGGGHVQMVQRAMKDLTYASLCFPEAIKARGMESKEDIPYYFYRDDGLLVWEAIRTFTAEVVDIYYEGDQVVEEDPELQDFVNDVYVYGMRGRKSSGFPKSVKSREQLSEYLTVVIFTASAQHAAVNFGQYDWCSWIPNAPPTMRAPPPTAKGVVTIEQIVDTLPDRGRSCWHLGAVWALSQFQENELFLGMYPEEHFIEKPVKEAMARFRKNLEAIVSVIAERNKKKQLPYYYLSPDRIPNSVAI
Experimental: 1. Inhibition of 5-Lipoxygenase in Human Whole Blood
Blood is obtained in 50-100 ml quantities from male donors. White blood cell counts and differentials are made. Two ml of blood are placed in a 15 ml polypropylene test tube. Test compounds are solubilized in dimethylsulfoxide and diluted in 1:10 in 10% bovine serum albumin in phosphate buffered saline, pH 7.4 resulting in a final dimethylsulfoxide concentration of 0.1% in the blood. Then, solutions of test compounds are added to the blood in a shaking water bath at 37° C. for 10 minutes prior to the addition of 30 μM calcium ionophore (A23187, Sigma). After ionophore administration, whole blood samples are mixed and incubated for 20 minutes at 37° C. in a shaking water bath. Incubation is terminated by placing samples in an ice bath and immediately adding ethylene glycol-bis-(β-aminoethyl ether)-N, N,N',N'-tetraacetic acid (10 mM). Samples are mixed and centrifuged at 1200×g for 15 minutes at […]. Preparation of samples for evaluation by RIA or ELISA is carded out by the following protocol. Plasma is removed from sample tubes, placed in 15 ml polypropylene test tubes containing 8 ml methanol, and then vortexed to precipitate protein. Samples are stored at -70° C. overnight. The next day, samples are centrifuged at 200×g for 15 minutes at 4° C. to pellet the precipitate. Samples are dried in a Savant SpeedVac Concentrator, Model SVC 200H, reconstituted to original volume with ice cold RIA or ELISA buffer, and stored at -70° C. until assayed. The assay for eicosanoids (LTB4, TxB2, and PGE2) is performed as described by the manufacturer of the [^3 H]-RIA kit or ELISA kit (LTB4 -Amersham, TxB2 and PGE2 - Caymen Chemical).
The total eicosanoid level in 2 ml of blood is calculated and reported as ng/10^6 neutrophils. Significance is determined by a one-way analysis of variance with least significant difference (LSD) comparisons to control (p≤0.05) and IC50 's (μM) are determined by regression analysis (Finney, 1978). Drug effects are expressed as percent change from control values.

[2] = tested on: LT-dependent bronchoconstriction; test: Inhibition of Bronchoconstriction in Guinea Pigs Induced by Exogenously Administered Antigen; type: in vivo, Male guinea pigs; settings: 10 mg/kg i.v.
Experimental: 4. Inhibition of Brochoconstriction in Guinea Pigs Induced by Exogenously Administered Antigen
Male guinea pigs (Charles River, Wilmington, Mass.) were sensitized 3-4 weeks prior to antigen challenge by administration of 2 i.m. injections of ovalbumin, 1 into each hind limb (35 mg total). Sensitized animals (500-600 g) were fasted overnight prior to experimentation. Conscious animals were then dosed p.o. with drug or vehicle alone (0.5% Tween 80 in H2 O) at the indicated times prior to antigen challenge, or anesthetized animals were dosed i.v. with drug or vehicle alone (DMSO) 5 min prior to antigen challenge. Animals were anesthetized by urethane (2.8 g/kg i.p.). A carotid artery and jugular vein were cannulated to allow for the monitoring of blood pressure and the administration of drugs, respectively. The trachea was then cannulated and connected to a Harvard Apparatus rodent ventilator (S. Natick, Mass.). Spontaneous respiration was abolished by the administration of succinylcholine (2.5 mg/kg i.v.). The animals were then ventilated with room air at a rate of 65 breaths per min. Airway inflation pressure was measured using a Statham pressure transducer (Gould Instruments, Cleveland, Ohio) connected to the tracheal cannula via a side-arm and recorded on a Grass Instruments recorder (Quincy, Mass.). The tidal volume (approximately 10 cc/kg) was adjusted to give a baseline inflation pressure of 8-10 cm H2 O at end inspiration. Animals were then allowed 20 min to stabilize.
Following the stabilization period, animals were given i.v. injections of pyrilamine (5 mg/kg), propranolol (0.1 mg/kg) and indomethacin (10 mg/kg) at 15, 10 and 5 min, respectively, prior to antigen challenge. This pretreatment results in an LT-dependent bronchoconstriction following antigert challenge, which was accomplished by i.v. administration of ovalbumin (10 mg/kg). Only one bronchoconstriction per animal was induced. End-inspiratory inflation pressure (in cm H2 O over baseline) was measured at 5 min post-antigen challenge. A mean value and standard error for the % inhibition of control bronchoconstriction in each drug-treated group was then calculated.

[3] = tested on: Lipoxygenase; test: Ex-Vivo Measurement of Lipoxygenase Inhibition in Orally Dosed Rats (LTB4 in A23187-stimulated blood); parameters: species or system Male Sprague Dawley rats; settings: ex vivo rat, p.o., dose 10 (mg/kg), pretreatment 3 hr
Experimental: 2. […] After an interval of 3 or 6 hours, the rats were anesthetized with metofane (n =4/group) and blood collected in heparinized tubes. White blood cell counts and differentials were made. One ml of blood from each animal was placed in a 5 ml plastic tube in a shaker bath at 37° C. A23187 at a final concentration of 10 μM was added to the blood and the blood vortexed and incubated for 15 min at 37° C. with gentle shaking. Incubation was terminated by vortexing sample and centrifuging immediately at 1200 xG for 15 min at 4° C. The plasma was transferred to 15 ml plastic tubes each containing 8 ml of methanol to precipitate protein followed by vortexing. The samples were stored at -70° C. overnight and the next day the samples were centrifuged at 800 xG for 15 min to pellet the precipitate. The samples were dried in a Savant SpeedVac Concentrator Model SVC 200H and reconstituted to the original volume with cold RIA or ELISA buffer. The reconstituted samples were stored at -70° C. until assayed. The assay for LTB4 was perforated according to the directions of the [^3 H]RIA kit or ELISA kit (Seragen). The total metabolite level in 1 ml of blood is calculated and reported as ng/10^6 neutrophils. Significance is determined by a one-way analysis of variance with LSD comparisons to control (p<0.05).

[4] = tested on: Low Density Lipoprotein; test: Inhibition of Copper Ion Mediated Oxidation of Low Density Lipoprotein; type: biochemical; settings: Cu+2 mediated oxidation of rabbit or monkey LDL, 37° C., 90 minutes, 532 nm
Experimental: 5. Inhibition of Copper Ion Mediated Oxidation of Low Density Lipoprotein
In this in vitro assay, the inhibition of Cu^+2 mediated oxidation of rabbit or monkey LDL by an invention compound is determined spectrophotometricallly. Oxidation of LDL results in the formation of LDL-diene which absorbs light at 532 nm. Inhibition of oxidation of LDL leads to a decrease in absorbance at 532 nm.
Rabbit or monkey LDL is prepared according to the procedures of Havel, Eder and Gragdon, "The Distribution and Chemical Composition of Ultracentrifugally Separated Lipoproteins in Human Serum,: J. Clin. Invest. 34, 1345-1353 (1955) and Parhtasarathy, Wieland and Steriberg, "A Role for Endothelial Cell Lipoxygenase in the Oxidative Modification of Low Density Lipoprotein," Proc. Natl. Acad. Sci. USA 86, 1046-1050 (1989). Test compound solutions are prepared by dissolving the invention compounds in ethanol at concentrations up to 248 μM. The medium used is Dulbecco's phosphate buffered saline containing 0.5 mg/ml bovine serum albumin. For standards, 0 to 10 μl of an aqueous solution of 1,1,3,3-tetraethoxypropane (1 μmol/ml H2 O) in 4.1 ml of medium is used.
Test compound solution ([…]) is added to 4 ml of medium in incubation tubes. To each tube is added 10 μl of LDL solution and 25 μl of aqueous copper sulfate solution (1.32 mg/ml H2 O). The tubes are incubated at 37° C. for 90 minutes and the oxidation reaction quenched by addition of 1 ml of thiobarbituric acid solution (0.67% in 50% acetic acid). The tubes are heated at 90° C. for 1 hour, then chilled in an ice bath and the chromophore extracted into 2 ml of n-butanol. Absorbence is read at 532 nm and the results are reported as nmols of malondialdehyde equivalents.
Significant differences (p<0.05) are determined by the Dunnett T-test or by the Student-Newman-Keuls Test for significant differences between means. The assay is conducted using several concentrations [I] of the inhibitor test compounds. The LDL solution concentrations at different experiments were either 1.5 mg/ml, 2.5 mg/ml or 10.3 mg/ml. The IC50 is determined by non-linear regression, plotting log [I] vs. % inhibition. (Reference: K. Yagi, Biochemical Medicine 15,212-216 (1976)).

[5] = tested on: atherosclerotic lesions; settings: WHHL rabbits, in words; cited from earlier work
[6] = tested on: LDL; settings: in words; cited from earlier work
[7] = tested on: LDL; settings: in words; cited from earlier work; remark: listed apart in the source

Structure (SMILES): NC(=O)N(O)Cc1ccc(OCCc2csc(-c3ccc(C(F)(F)F)cc3)n2)cc1 [Example 19, 1-Hydroxy-1-[4-[2-[2-(4-trifluoromethyl-phenyl)-thiazol-4-yl]-ethoxy]-benzyl]-urea]
- inhibition at 1 µM ([1]; 1 μM): 57%
- Bronchoconstriction % Inhibition [2]: 21%

Structure (SMILES): Cc1oc(-c2cc(C(C)(C)C)c(O)c(C(C)(C)C)c2)nc1CCOc1ccc(CN(O)C(N)=O)cc1 [Example 10]
- % Inhibition of LTB4 [3]: 44%
- IC50 [4]: 180 nM
- inhibition at 10 µM ([1]; 10 μM): 83%

Structure (SMILES): CC(C)(Sc1cc(C(C)(C)C)c(O)c(C(C)(C)C)c1)Sc1cc(C(C)(C)C)c(O)c(C(C)(C)C)c1 [Probucol]
- inhibition of formation of atherosclerotic lesions [5]: shown to inhibit the formation of atherosclerotic lesions in WHHL rabbits
- inhibition of Cu+2 mediated oxidative modification of LDL [6]: inhibits both cell mediated and Cu^+2 mediated oxidative modification of LDL
- inhibition of cell mediated oxidative modification of LDL [7]: inhibits both cell mediated and Cu^+2 mediated oxidative modification of LDL
